Laboratory results: patent US20160333419A1, “GENE SIGNATURES ASSOCIATED WITH SENSITIVITY TO MDM2 INHIBITORS” (DAIICHI SANKYO COMPANY, LIMITED, priority 2014, published 2016)

Columns and labels:
Test in all cases: OncoPanel cytotoxicity assay
Type in all cases: cell-based
SW1463 = details: Homo sapiens, 72 hour incubation
How it was run: (§1)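 Cells grown in RPMI 1640 with 10% FBS (or a special medium) at 37° C, 5% CO2 were treated 24 hours after seeding for 72 hours with 10 concentrations (3.16-fold dilutions, 0.1% DMSO final). Nuclei were dye-stained and imaged; IC50 was fit from percent of control relative cell count.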

MT-3 = details: Homo sapiens, 72 hour incubation
How it was run: as §1

Daoy = details: Homo sapiens, 72 hour incubation
How it was run: as §1

639-V = details: Homo sapiens, 72 hour incubation
How it was run: as §1

DoTc2 4510 = details: Homo sapiens, 72 hour incubation
How it was run: as §1

A427 = details: Homo sapiens, A-427, 72 hour incubation
How it was run: as §1

NCI-H747 = details: Homo sapiens, 72 hour incubation
How it was run: as §1

SaOS2 = details: Homo sapiens, SAOS-2, 72 hour incubation
How it was run: as §1

CHP-212 = details: Homo sapiens, 72 hour incubation
How it was run: as §1

SW620 = details: Homo sapiens, SW-620, 72 hour incubation
How it was run: as §1

DK-MG = details: Homo sapiens, 72 hour incubation
How it was run: as §1

BT20 = details: Homo sapiens, BT-20, 72 hour incubation
How it was run: as §1

SW962 = details: Homo sapiens, SW 962, 72 hour incubation
How it was run: as §1

HPAF-II = details: Homo sapiens, 72 hour incubation
How it was run: as §1

MOLT-3 = details: Homo sapiens, 72 hour incubation
How it was run: as §1

CEM-C1 = details: Homo sapiens, 72 hour incubation
How it was run: as §1

SW684 = details: Homo sapiens, 72 hour incubation
How it was run: as §1

BT474 = details: Homo sapiens, BT-474, 72 hour incubation
How it was run: as §1

Detroit 562 = details: Homo sapiens, 72 hour incubation
How it was run: as §1

SK-MEL-1 = details: Homo sapiens, 72 hour incubation
How it was run: as §1

MDA-MB-436 = details: Homo sapiens, 72 hour incubation
How it was run: as §1

BxPC-3 = details: Homo sapiens, 72 hour incubation
How it was run: as §1

CML-T1 = details: Homo sapiens, 72 hour incubation
How it was run: as §1

SCC-25 = details: Homo sapiens, 72 hour incubation
How it was run: as §1

SW872 = details: Homo sapiens, 72 hour incubation
How it was run: as §1

PANC-1 = details: Homo sapiens, 72 hour incubation
How it was run: as §1

NALM-6 = details: Homo sapiens, 72 hour incubation
How it was run: as §1

G-401 = details: Homo sapiens, 72 hour incubation
How it was run: as §1

786-O = details: Homo sapiens, 786-0, 72 hour incubation
How it was run: as §1

647-V = details: Homo sapiens, 72 hour incubation
How it was run: as §1

OCUG-1 = details: Homo sapiens, 72 hour incubation
How it was run: as §1

HEC-1-A = details: Homo sapiens, 72 hour incubation
How it was run: as §1

Capan-1 = details: Homo sapiens, 72 hour incubation
How it was run: as §1

KLE = details: Homo sapiens, 72 hour incubation
How it was run: as §1

MES-SA = details: Homo sapiens, 72 hour incubation
How it was run: as §1

HEL-92-1-7 = details: Homo sapiens, HEL 92.1.7, 72 hour incubation
How it was run: as §1

HCT-116 = details: Homo sapiens, 72 hour incubation
How it was run: as §1

BM-1604 = details: Homo sapiens, 72 hour incubation
How it was run: as §1

C-33A = details: Homo sapiens, 72 hour incubation
How it was run: as §1

SMILES	IC50 (SW1463) [µM]	IC50 (MT-3) [nM]	IC50 (Daoy) [µM]	IC50 (639-V) [µM]	IC50 (DoTc2 4510) [µM]	IC50 (A427) [nM]	IC50 (NCI-H747) [µM]	IC50 (SaOS2) [µM]	IC50 (CHP-212) [nM]	IC50 (SW620) [µM]	IC50 (DK-MG) [nM]	IC50 (BT20) [µM]	IC50 (SW962) [µM]	IC50 (HPAF-II) [µM]	IC50 (MOLT-3) [nM]	IC50 (CEM-C1) [µM]	IC50 (SW684) [µM]	IC50 (BT474) [µM]	IC50 (Detroit 562) [µM]	IC50 (SK-MEL-1) [nM]	also measured
CC[C@@H]1CNC2(CC2)CN1C(=O)[C@@H]1C[C@@H](F)CN1C(=O)C1=C(C(C)C)N2C(=N[C@@](C)(c3ccc(Cl)nc3)[C@H]2c2ccc(Cl)c(F)c2)S1 [Compound A, [(5R,6S)-5-(4-Chloro-3-fluorophenyl)-6-(6-chloropyridin-3-yl)-6-methyl-3-(propan-2-yl)-5,6-dihydroimidazo[2,1-b][1,3]thiazol-2-yl][(2S,4R)-2-{[(6R)-6-ethyl-4,7-diazaspiro[2.5]oct-7-yl]carbonyl}-4-fluoropyrrolidin-1-yl]methanone]	> 40	1130	> 40	> 40	39.6	1650	> 40	> 40	196	> 40	645	> 40	> 40	> 40	605	33.6	> 40	> 40	> 40	207	IC50 (MDA-MB-436): > 40 µM; IC50 (BxPC-3): > 40 µM; IC50 (CML-T1): 2380 nM; IC50 (SCC-25): > 40 µM; IC50 (SW872): > 40 µM; IC50 (PANC-1): > 40 µM; IC50 (NALM-6): 658 nM; IC50 (G-401): 242 nM; IC50 (786-O): 37.3 µM; IC50 (647-V): > 40 µM; IC50 (OCUG-1): > 40 µM; IC50 (HEC-1-A): > 40 µM; IC50 (Capan-1): > 40 µM; IC50 (KLE): > 40 µM; IC50 (MES-SA): 529 nM; IC50 (HEL-92-1-7): > 40 µM; IC50 (HCT-116): 653 nM; IC50 (BM-1604): > 40 µM; IC50 (C-33A): > 40 µM
CC1(C)CCC2(CC1)N[C@@H](C(=O)N[C@@H]1CC[C@@H](C(N)=O)OC1)[C@H](c1ccnc(Cl)c1F)[C@]21C(=O)Nc2cc(Cl)ccc21 [Compound B, (3′R,4′S,5′R)—N-[(3R,6S)-6-carbamoyltetrahydro-2H-pyran-3-yl]-6″-chloro-4′-(2-chloro-3-fluoropyridin-4-yl)-4,4-dimethyl-2″-oxo-1″,2″-dihydrodispiro[cyclohexane-1,2′-pyrrolidine-3′,3″-indole]-5′-carboxamide]	> 10	164	> 10	6.39	> 10	143	> 10	> 10	29.4	7.12	55.3	> 10	> 10	5.79	33.2	9.37	> 10	> 10	7.74	29.3	IC50 (MDA-MB-436): > 10 µM; IC50 (BxPC-3): > 10 µM; IC50 (CML-T1): 59.7 nM; IC50 (SCC-25): 9.86 µM; IC50 (SW872): > 10 µM; IC50 (PANC-1): 6.73 µM; IC50 (NALM-6): 65 nM; IC50 (G-401): 35.4 nM; IC50 (786-O): 0.342 µM; IC50 (647-V): > 10 µM; IC50 (OCUG-1): > 10 µM; IC50 (HEC-1-A): > 10 µM; IC50 (Capan-1): > 10 µM; IC50 (KLE): > 10 µM; IC50 (MES-SA): 64.1 nM; IC50 (HEL-92-1-7): > 10 µM; IC50 (HCT-116): 50.5 nM; IC50 (BM-1604): > 10 µM; IC50 (C-33A): 5.49 µM
